In the NIST ThermoML archive (doi:10.1021/je0340809):

Experiment: xn = mol fraction of the nth substance listed
Settings: 101.3 kPa, Liquid

C=CN1CCCC1=O [N-vinylpyrrolidone] + O
Settings	mass density [kg/m3]	speed of sound [m/s]	viscosity [mPa·s]
298.15 K, x2 = 0.0557	1042.3	1533.7	4.243
298.15 K, x2 = 0.1591	1043.33	1548.1	–
298.15 K, x2 = 0.2543	1044.19	1563.3	3.875
298.15 K, x2 = 0.3503	1044.83	1580.9	3.75
298.15 K, x2 = 0.4525	1045.46	1598.7	3.717
298.15 K, x2 = 0.5028	1045.82	1609.9	3.742
298.15 K, x2 = 0.5539	1046.19	1618.5	3.792
298.15 K, x2 = 0.6546	1046.56	1635.8	3.91
298.15 K, x2 = 0.7505	1045.06	1649.2	3.904
298.15 K, x2 = 0.8519	1037.72	1648.2	3.466
298.15 K, x2 = 0.8751	1034.5	1646.7	3.255
298.15 K, x2 = 0.8852	1032.84	1644.4	3.145
298.15 K, x2 = 0.9001	1030.08	1640	2.962
298.15 K, x2 = 0.9251	1024.45	1623.7	2.591
298.15 K, x2 = 0.9357	1021.63	1613.8	2.408
298.15 K, x2 = 0.9554	1015.6	1589.5	2.021
298.15 K, x2 = 0.9649	1012.26	1574.7	–
298.15 K, x2 = 0.9749	1008.43	1556.5	1.573
298.15 K, x2 = 0.9903	1001.77	1523.1	1.169
308.15 K, x2 = 0.0557	1033.43	1502.5	2.907
308.15 K, x2 = 0.1591	1034.36	1514.3	2.809
308.15 K, x2 = 0.2543	1035.14	1526.7	2.718
308.15 K, x2 = 0.3503	1035.73	1541.2	2.667
308.15 K, x2 = 0.4525	1036.33	1556.2	2.694
308.15 K, x2 = 0.5028	1036.61	1565.6	2.742
308.15 K, x2 = 0.5539	1037.01	1573.3	2.807
308.15 K, x2 = 0.6546	1037.41	1589.3	2.954
308.15 K, x2 = 0.7505	1036.16	1603.4	3.001
308.15 K, x2 = 0.8519	1029.8	1609.5	2.703
308.15 K, x2 = 0.8751	1026.99	1610.5	2.545
308.15 K, x2 = 0.8852	1025.54	1609.8	2.463
308.15 K, x2 = 0.9001	1023.12	1608.2	2.324
308.15 K, x2 = 0.9251	1018.18	1599.1	2.04
308.15 K, x2 = 0.9357	1015.71	1593.2	1.9
308.15 K, x2 = 0.9554	1010.4	1578.2	1.6
308.15 K, x2 = 0.9649	1007.47	1568.8	1.437
308.15 K, x2 = 0.9749	1004.09	1557.1	1.252
308.15 K, x2 = 0.9903	998.206	1535.4	0.932
318.15 K, x2 = 0.0557	1024.6	1470.5	2.552
318.15 K, x2 = 0.1591	1025.41	1480.4	2.454
318.15 K, x2 = 0.2543	1026.11	1490.9	2.362
318.15 K, x2 = 0.3503	1026.63	1503.3	2.305
318.15 K, x2 = 0.4525	1027.16	1516.6	2.31
318.15 K, x2 = 0.5028	1027.46	1524.9	2.34
318.15 K, x2 = 0.5539	1027.78	1532.1	2.385
318.15 K, x2 = 0.6546	1028.14	1547.7	2.488
318.15 K, x2 = 0.7505	1027.08	1563.3	2.509
318.15 K, x2 = 0.8519	1021.56	1576	2.249
318.15 K, x2 = 0.8751	1019.1	1579.4	2.115
318.15 K, x2 = 0.8852	1017.84	1580.1	2.046
318.15 K, x2 = 0.9001	1015.73	1580.9	1.929
318.15 K, x2 = 0.9251	1011.41	1577.9	1.692
318.15 K, x2 = 0.9357	1009.25	1575.3	1.576
318.15 K, x2 = 0.9554	1004.59	1567.9	1.326
318.15 K, x2 = 0.9649	1002.02	1562.9	1.191
318.15 K, x2 = 0.9749	999.05	1556.6	1.037
318.15 K, x2 = 0.9903	993.883	1544.4	0.776
328.15 K, x2 = 0.0557	1015.77	1433	2.221
328.15 K, x2 = 0.1591	1016.49	1441.7	2.128
328.15 K, x2 = 0.2543	1017.1	1451.2	2.042
328.15 K, x2 = 0.3503	1017.56	1462.3	1.983
328.15 K, x2 = 0.4525	1018.03	1474.7	1.975
328.15 K, x2 = 0.5028	1018.3	1482.4	1.993
328.15 K, x2 = 0.5539	1018.58	1489.6	2.025
328.15 K, x2 = 0.6546	1018.91	1505.7	2.096
328.15 K, x2 = 0.7505	1018	1523.4	2.103
328.15 K, x2 = 0.8519	1013.18	1542.9	1.876
328.15 K, x2 = 0.8751	1011.04	1548.6	1.763
328.15 K, x2 = 0.8852	1009.94	1550.7	1.705
328.15 K, x2 = 0.9001	1008.09	1553.7	1.609
328.15 K, x2 = 0.9251	1004.31	1556.2	1.411
328.15 K, x2 = 0.9357	1002.41	1556.5	1.314
328.15 K, x2 = 0.9554	998.333	1556.6	1.108
328.15 K, x2 = 0.9649	996.075	1554.4	0.995
328.15 K, x2 = 0.9749	993.467	1552.6	0.868
328.15 K, x2 = 0.9903	988.924	1548.5	0.652
338.15 K, x2 = 0.0557	1006.93	1406	1.807
338.15 K, x2 = 0.1591	1007.56	1413.8	1.736
338.15 K, x2 = 0.2543	1008.1	1422.3	1.668
338.15 K, x2 = 0.3503	1008.51	1432.4	1.624
338.15 K, x2 = 0.4525	1008.92	1444.1	1.621
338.15 K, x2 = 0.5028	1009.15	1451.3	1.639
338.15 K, x2 = 0.5539	1009.4	1458.3	1.667
338.15 K, x2 = 0.6546	1009.7	1474.6	1.73
338.15 K, x2 = 0.7505	1008.9	1493.7	1.739
338.15 K, x2 = 0.8519	1004.69	1517.9	1.557
338.15 K, x2 = 0.8751	1002.82	1525.2	1.466
338.15 K, x2 = 0.8852	1001.85	1528.2	1.42
338.15 K, x2 = 0.9001	1000.23	1532.8	1.34
338.15 K, x2 = 0.9251	996.917	1539.1	1.18
338.15 K, x2 = 0.9357	995.252	1541.5	1.1
338.15 K, x2 = 0.9554	991.671	1545.5	0.931
338.15 K, x2 = 0.9649	989.687	1547	0.84
338.15 K, x2 = 0.9749	987.393	1548.4	0.736
338.15 K, x2 = 0.9903	983.396	1550.2	0.56
